# Measurements from ChEMBL document CHEMBL3091361, “Synthesis, structure elucidation and in vitro anticancer activities of novel derivatives of diethyl (2E)-2-[(2E)-(1-arylimidazolidin-2-ylidene)hydrazono]succinate and ethyl (4-oxo-8-aryl-4,6,7,8-tetrahydroimidazo[2,1-c][1,2,4]triazin-3-yl)acetate” (Bioorg Med Chem, 2013).
# Experiments:
# [1] = Selectivity ratio for human T47D cells over human HSF cells after 72 hrs; format: ADME, cell-based; details: T47D cells versus HSF cells
# [2] = Selectivity ratio for human HeLa cells over human HSF cells after 72 hrs; format: ADME, cell-based; details: HeLa cells versus HSF cells
# [3] = Selectivity ratio for human HeLa cells over human HSF cells after 48 hrs; format: ADME, cell-based; details: HeLa cells versus HSF cells
# [4] = Selectivity ratio for human HeLa cells over human HSF cells after 24 hrs; format: ADME, cell-based; details: HeLa cells versus HSF cells
# [5] = Cytotoxicity against human HSF cells at 50 ug/ml by BrdU incorporation assay; format: cell-based; details: TDE = time-dependent effect
# [6] = tested on: T47D; test: Cytotoxicity against human T47D cells at 50 ug/ml after 72 hrs by BrdU incorporation assay relative to control; format: functional; details: read-out: GI
# [7] = tested on: T47D; test: Cytotoxicity against human T47D cells at 50 ug/ml after 48 hrs by BrdU incorporation assay relative to control; format: functional; details: read-out: GI
# [8] = tested on: T47D; test: Cytotoxicity against human T47D cells at 50 ug/ml after 24 hrs by BrdU incorporation assay relative to control; format: functional; details: read-out: GI
# [9] = tested on: HeLa; test: Cytotoxicity against human HeLa cells at 50 ug/ml after 72 hrs by BrdU incorporation assay relative to control; format: functional; details: read-out: GI
# [10] = tested on: HeLa; test: Cytotoxicity against human HeLa cells at 50 ug/ml after 48 hrs by BrdU incorporation assay relative to control; format: functional; details: read-out: GI
# [11] = tested on: HeLa; test: Cytotoxicity against human HeLa cells at 50 ug/ml after 24 hrs by BrdU incorporation assay relative to control; format: functional; details: read-out: GI
# [12] = Cytotoxicity against human MM1S cells at 50 ug/ml after 72 hrs by BrdU incorporation assay relative to control; format: functional; details: MM1.S, read-out: GI
# [13] = Cytotoxicity against human MM1S cells at 50 ug/ml after 48 hrs by BrdU incorporation assay relative to control; format: functional; details: MM1.S, read-out: GI
# [14] = Cytotoxicity against human MM1S cells at 50 ug/ml after 24 hrs by BrdU incorporation assay relative to control; format: functional; details: MM1.S, read-out: GI
# [15] = Cytotoxicity against human MM1R cells at 50 ug/ml after 72 hrs by BrdU incorporation assay relative to control; format: functional; details: MM.1R, read-out: GI
# [16] = Cytotoxicity against human MM1R cells at 50 ug/ml after 48 hrs by BrdU incorporation assay relative to control; format: functional; details: MM.1R, read-out: GI
# [17] = Cytotoxicity against human MM1R cells at 50 ug/ml after 24 hrs by BrdU incorporation assay relative to control; format: functional; details: MM.1R, read-out: GI
# [18] = Cytotoxicity against human HSF cells at 50 ug/ml after 72 hrs by BrdU incorporation assay relative to control; format: cell-based; details: read-out: GI
# [19] = Cytotoxicity against human HSF cells at 50 ug/ml after 48 hrs by BrdU incorporation assay relative to control; format: cell-based; details: read-out: GI
# [20] = Cytotoxicity against human HSF cells at 50 ug/ml after 24 hrs by BrdU incorporation assay relative to control; format: cell-based; details: read-out: GI
# [21] = Toxicity in ip dosed albino-Swiss mouse; format: organism-based; details: in vivo
# [22] = Selectivity ratio for human RPMI8226 cells over human HSF cells; format: ADME, cell-based, RPMI-8226; details: RPMI8226 cells versus HSF cells
smiles,measurement,setting,value
COc1ccccc1N1CCn2c1nnc(-c1ccco1)c2=O,selectivity ratio at 72 h,[1],14
same,selectivity ratio at 72 h,[2],16
O=c1c(-c2ccco2)nnc2n1CCN2c1ccccc1Cl,selectivity ratio at 72 h,[2],5
same,selectivity ratio at 48 h,[3],4
same,selectivity ratio at 24 h,[4],8
O=c1c(-c2ccco2)nnc2n1CCN2c1c(Cl)cccc1Cl,selectivity ratio at 72 h,[2],> 6
same,selectivity ratio at 48 h,[3],> 5
same,selectivity ratio at 24 h,[4],8
CCOC(=O)Cc1nnc2n(c1=O)CCN2c1ccc(Cl)cc1,Activity,[5],tde
same,inhibition of growth at 50 µg/mL,[6],50%
same,inhibition of growth at 50 µg/mL,[7],50%
same,inhibition of growth at 50 µg/mL,[8],50%
same,inhibition of growth at 50 µg/mL,[9],40%
same,inhibition of growth at 50 µg/mL,[10],30%
same,inhibition of growth at 50 µg/mL,[11],20%
same,inhibition of growth at 50 µg/mL,[12],90%
same,inhibition of growth at 50 µg/mL,[13],75%
same,inhibition of growth at 50 µg/mL,[14],45%
same,inhibition of growth at 50 µg/mL,[15],90%
same,inhibition of growth at 50 µg/mL,[16],85%
same,inhibition of growth at 50 µg/mL,[17],80%
same,"inhibition at 72 h, 50 ug/ml",[18],80%
same,"inhibition at 48 h, 50 ug/ml",[19],75%
same,"inhibition at 24 h, 50 ug/ml",[20],50%
COc1ccc(N2CCn3c2nnc(-c2ccccc2)c3=O)cc1,LD50,[21],> 2000 mg/kg
same,selectivity ratio,[22],1.7
